Literature values as cited in patent publication US5994374A, “Substituted 1-indolylpropyl-4-benzyl-tetrahydropyridine derivatives” (Merck Sharp & Dohme Ltd., priority 1995, dated 1999).

Test system: human 5-HT1Dα and 5-HT1Dβ receptor subtypes
Details: cf. WO-A-91/17174, Table 1

discrimination between the human 5-HT1Dα and 5-HT1Dβ receptor subtypes: barely discriminates
SMILES: CNS(=O)(=O)Cc1ccc2[nH]cc(CCN(C)C)c2c1 [sumatriptan]
